What was measured:
[1] = Human microsome stability assay; format: in vitro ADME; conditions: 1 μM compound, 0.5 mg/mL microsomal protein, 37° C.; detection limit 6.15 mL/min/kg
Experimental: Human Microsome Stability Assay The human microsomal stability assay is used for early assessment of metabolic stability of a test compound in human liver microsomes. Human liver microsomes (Cat. […] The reactions were initiated by adding NADPH regenerating system. […] Following precipitation and centrifugation, the amount of compound remaining in the samples were determined by LC-MS/MS. Controls of no NADPH regenerating system at zero and 30 minutes were also prepared and analyzed.

[2] = test system: primary human hepatocyte (PHH); assay: Cytotoxicity in PHH natural infection assay (Cell Counting Kit-8); format: cell-based; conditions: therapeutic index; CC50 by CCK8 in PHH over HBsAg IC50
Experimental: Detailed procedures regarding primary human hepatocyte (PHH) HBV natural infection assay are described as below. One tube of frozen PHH (10 million cells) was thawed in 37° C. water bath and then transferred to 20 mL of PHH thawing medium (Sigma, InVitroGRO HT Medium, Cat. 503319) with gently mixing. The cells were then centrifuged at […] for 5 min, the supernatant was discarded and the tube was refilled with 25 mL of PHH plating medium (Sigma, InVitroGRO CP Medium, Cat. 503317). The tube was shaken very gently to re-suspend all cells, and then 50 μl of cells were transferred to each well of a 384-well collagen I coated plate with appropriate liquid handling equipment, e.g. Integra VIAFLO384 or Agilent Bravo. The cells were then cultured for 24 hours in a cell incubator. For HBV infection, after PHH attachment on the culture plate, the plating medium was removed and replenished with PHH culture medium containing HBV virus. The PHH culture medium was prepared with Dulbecco's Modified Eagle Medium (DMEM)/F12 (1:1 in volume ratio) containing 10% fetal bovine serum (Gibco, Cat.10099141), 5 ng/mL human epidermal growth factor (Gibco, Cat.PHG031 IL), 20 ng/mL dexamethasone (Sigma, Cat.D4902-100 mg), 250 ng/mL human recombinant insulin (Gibco, Cat.41400045) and 100 U/mL penicillin. HBV virus at 200 genome equivalent (GE) per cell with 4% PEG8000 (Sigma, Cat.P1458) containing culture medium were added to the PHH culture medium for infection. The cells were then cultured for 24 hours in cell incubator. Then the cell culture supernatant was removed. The HBV-infected PHH were cultured with sandwich culture method with PHH culture medium containing 1% DMSO and 0.25 mg/mL matrix gel for 72 hours. The supernatant was then refreshed with PHH culture medium containing different concentrations of testing compounds for two times with 72-hour interval. At the end of treatment, the supernatant was collected for viral markers measurements, including HBsAg, HBeAg, HBV DNA and cytotoxicity. HBsAg and HBeAg were detected using alphalisa method using their specific antibodies. For HBV DNA detection, HBV DNA Quantitative Fluorescence Diagnostic Kit (Sansure Biotech Inc.) was used following the manufacture's protocol. Cytotoxicity was determined using Cell Counting Kit-8 (CCK8, Dojindo Molecular Technologies, Inc.).

[3] = test system: HBeAg; assay: microbe, parasite or virus in culture; format: cell-based, HBV; conditions: Hepatitis B virus, read-out: HBeAg IC50
[4] = test system: HBsAg; assay: microbe, parasite or virus in culture; format: cell-based, HBV; conditions: Hepatitis B virus, read-out: HBsAg IC50

Structure (SMILES) | Clearance of human microsome [1] [mL/min/kg] | TI (CC50/IC50 HBsAg) [2] | IC50 [3] [nM] | IC50 [4] [nM]
CS(=O)(=O)C1(c2ccc(C(=O)NC34CC(c5nc(-c6ccc(Cl)nc6)cs5)(C3)C4)o2)CC1 [Example 9, N-[3-[4-(6-chloro-3-pyridyl)thiazol-2-yl]-1-bicyclo[1.1.1]pentanyl]-5-(1-methylsulfonylcyclopropyl)furan-2-carboxamide] | ≤6.15 |  |  | 
CS(=O)(=O)C1(c2ccc(C(=O)NC34CC(c5cn(-c6ccc(Cl)cc6)nn5)(C3)C4)o2)CC1 [Example 29, N-[3-[1-(4-chlorophenyl)triazol-4-yl]-1-bicyclo[1.1.1]pentanyl]-5-(1-methylsulfonylcyclopropyl)furan-2-carboxamide] | ≤6.15 |  |  | 
CS(=O)(=O)C1(c2ccc(C(=O)NC34CC(c5ncc(C6CC6)s5)(C3)C4)o2)CC1 [Example 23, N-[3-(5-cyclopropylthiazol-2-yl)-1-bicyclo[1.1.1]pentanyl]-5-(1-methylsulfonylcyclopropyl)furan-2-carboxamide] | ≤6.15 |  |  | 
CS(=O)(=O)C1(c2nnc(C(=O)NC34CC(c5ncc(-c6ccc(Cl)cc6)s5)(C3)C4)o2)CC1 [Example 20, N-[3-[5-(4-chlorophenyl)thiazol-2-yl]-1-bicyclo[1.1.1]pentanyl]-5-(1-methylsulfonylcyclopropyl)-1,3,4-oxadiazole-2-carboxamide] | ≤6.15 |  |  | 
NC(=O)c1cc(C(=O)NC23CC(c4nc(-c5ccc(Cl)cc5)no4)(C2)C3)ccn1 [Example 36, N4-[3-[3-(4-chlorophenyl)-1,2,4-oxadiazol-5-yl]-1-bicyclo[1.1.1]pentanyl]pyridine-2,4-dicarboxamide] | 11.99 |  |  | 
CS(=O)(=O)C1(c2ncc(C(=O)NC34CC(c5nc(-c6ccc(Cl)cc6)cs5)(C3)C4)o2)CC1 [Example 6, N-[3-[4-(4-chlorophenyl)thiazol-2-yl]-1-bicyclo[1.1.1]pentanyl]-2-(1-methylsulfonylcyclopropyl)oxazole-5-carboxamide] | ≤6.15 | 81.63 | 50 | 80
CS(=O)(=O)C1(c2ccc(C(=O)NC34CC(c5nnc(-c6ccc(Cl)cc6)o5)(C3)C4)o2)CC1 [Example 28, N-[3-[5-(4-chlorophenyl)-1,3,4-oxadiazol-2-yl]-1-bicyclo[1.1.1]pentanyl]-5-(1-methylsulfonylcyclopropyl)furan-2-carboxamide] | ≤6.15 |  |  | 
CS(=O)(=O)C1(c2ccc(C(=O)NC34CC(c5nc(-c6ccccc6)cs5)(C3)C4)o2)CC1 [Example 13, 5-(1-methylsulfonylcyclopropyl)-N-[3-(4-phenylthiazol-2-yl)-1-bicyclo[1.1.1]pentanyl]furan-2-carboxamide] | ≤6.15 | 12.38 | 560 | 770
CS(=O)(=O)C1(c2ccc(C(=O)NC34CC(c5ncc(-c6ccc(Cl)cn6)s5)(C3)C4)o2)CC1 [Example 57, N-[3-[5-(5-chloro-2-pyridyl)thiazol-2-yl]-1-bicyclo[11.11]pentanyl]-5-(1-methylsulfonylcyclopropyl)furan-2-carboxamide] | 15.39 |  |  | 
CS(=O)(=O)Cc1ncc(C(=O)NC23CC(c4nc(-c5ccc(Cl)cc5)cs4)(C2)C3)o1 [Example 5, N-[3-[4-(4-chlorophenyl)thiazol-2-yl]-1-bicyclo[1.1.1]pentanyl]-2-(methylsulfonylmethyl)oxazole-5-carboxamide] | ≤6.15 |  |  | 
CS(=O)(=O)C1(c2ccc(C(=O)NC34CC(c5ncc(-c6ccc(Cl)c(Cl)c6)s5)(C3)C4)o2)CC1 [Example 21, N-[3-[5-(3,4-dichlorophenyl)thiazol-2-yl]-1-bicyclo[1.1.1]pentanyl]-5-(1-methylsulfonylcyclopropyl)furan-2-carboxamide] | 6.66 | 29.86 | 70 | 70
CS(=O)(=O)C1(c2ccc(C(=O)NC34CC(c5nc(C6CC6)cs5)(C3)C4)o2)CC1 [Example 14, N-[3-(4-cyclopropylthiazol-2-yl)-1-bicyclo[1.1.1]pentanyl]-5-(1-methylsulfonylcyclopropyl)furan-2-carboxamide] | ≤6.15 |  |  | 
CS(=O)(=O)C1(c2ccc(C(=O)NC34CC(c5ncc(Br)s5)(C3)C4)o2)CC1 [Example 24, N-[3-(5-bromothiazol-2-yl)-1-bicyclo[1.1.1]pentanyl]-5-(1-methylsulfonylcyclopropyl)furan-2-carboxamide] | ≤6.15 |  |  | 
CS(=O)(=O)C1(c2ccn(C(=O)NC34CC(c5nc(-c6ccc(Cl)cc6)cs5)(C3)C4)n2)CC1 [Example 53, N-[3-[4-(4-chlorophenyl)thiazol-2-yl]-1-bicyclo[1.1.1]pentanyl]-3-(1-methylsulfonylcyclopropyl)pyrazole-1-carboxamide] |  | 21.88 | 110 | 170
CS(=O)(=O)C1(c2ccc(C(=O)NC34CC(c5ncc(-c6cnc(Cl)cn6)s5)(C3)C4)o2)CC1 [Example 59, N-[3-[5-(5-chloropyrazin-2-yl)thiazol-2-yl]-1-bicyclo[1.1.1]pentanyl]-5-(1-methylsulfonylcyclopropyl)furan-2-carboxamide] | 6.89 |  |  | 
CS(=O)(=O)C1(c2ccn(C(=O)NC34CC(c5ncc(-c6ccc(Cl)cc6)s5)(C3)C4)n2)CC1 [Example 54, N-[3-[5-(4-chlorophenyl)thiazol-2-yl]-1-bicyclo[1.1.1]pentanyl]-3-(1-methylsulfonylcyclopropyl)pyrazole-1-carboxamide] |  | 10.83 | 50 | 60
CS(=O)(=O)C1(c2ncc(C(=O)NC34CC(c5ncc(-c6ccc(Cl)cc6)s5)(C3)C4)o2)CC1 [Example 55, N-[3-[5-(4-chlorophenyl)thiazol-2-yl]-1-bicyclo[1.1.1]pentanyl]-2-(1-methylsulfonylcyclopropyl)oxazole-5-carboxamide] |  | 89.00 | 70 | 90
CS(=O)(=O)C1(c2ccc(C(=O)NC34CC(c5ncc(-c6ccccc6)s5)(C3)C4)o2)CC1 [Example 22, 5-(1-methylsulfonylcyclopropyl)-N-[3-(5-phenylthiazol-2-yl)-1-bicyclo[1.1.1]pentanyl]furan-2-carboxamide] | ≤6.15 |  |  | 
CS(=O)(=O)C1(c2ccc(C(=O)NC34CC(c5nc(C(F)(F)F)cs5)(C3)C4)o2)CC1 [Example 16, 5-(1-methylsulfonylcyclopropyl)-N-[3-[4-(trifluoromethyl)thiazol-2-yl]-1-bicyclo[1.1.1]pentanyl]furan-2-carboxamide] | ≤6.15 |  |  | 
CS(=O)(=O)C1(c2ccc(C(=O)NC34CC(c5nc(-c6ccccc6)ns5)(C3)C4)o2)CC1 [Example 17, 5-(1-methylsulfonylcyclopropyl)-N-[3-(3-phenyl-1,2,4-thiadiazol-5-yl)-1-bicyclo[1.1.1]pentanyl]furan-2-carboxamide] | ≤6.15 |  |  | 
CS(=O)(=O)C1(c2ccc(C(=O)NC34CC(c5ncc(-c6ccc(Cl)nc6)s5)(C3)C4)o2)CC1 [Example 56, N-[3-[5-(6-chloro-3-pyridyl)thiazol-2-yl]-1-bicyclo[1.1.1]pentanyl]-5-(1-methylsulfonylcyclopropyl)furan-2-carboxamide] | ≤6.15 |  |  | 
CS(=O)(=O)C1(c2ccc(C(=O)NC34CC(c5nsc(-c6ccccc6)n5)(C3)C4)o2)CC1 [Example 25, 5-(1-methylsulfonylcyclopropyl)-N-[3-(5-phenyl-1,2,4-thiadiazol-3-yl)-1-bicyclo[1.1.1]pentanyl]furan-2-carboxamide] | ≤6.15 |  |  | 

From US20230278997A1, “BICYCLO[1.1.1]PENTANE COMPOUNDS FOR THE TREATMENT AND PROPHYLAXIS OF HEPATITIS B VIRUS INFECTION” (Hoffmann-La Roche Inc., priority 2020, published 2023)
